Assay results taken from publication PMC10374545, “A small molecule inhibitor of PTP1B and PTPN2 enhances T cell anti-tumor immunity” (Nature Communications, 2023).
Where “and” joins values, the source holds several entries; their conditions need not be identical. Equal values may be shown once.

How the values were obtained:
Format in all cases: in vivo, mouse
[1] = tested on: p-STAT-1 and CD3 in AT3-OVA tumors; test: Immunohistochemistry for p-STAT-1 (Y701) and CD3 in AT3-OVA tumors; conditions: 10 mg/kg i.v.
Experimental: For the immunohistochemistry analysis of mammary tumor samples, samples were dissected and fixed in 10% formalin. After fixation, the tissues were embedded in paraffin and sectioned onto microscopic glass slides at 4 μm thickness per section. After deparaffinization and rehydration, the slides were subjected to antigen retrieval in Tris/EDTA buffer (pH 8.0) at 120 °C for 10 min and then cooled down to room temperature. The slides were blocked with 5% (v/v) normal goat serum (NGS) containing 0.1% (v/v) TritonX-100 in PBS for 1 h at room temperature and then incubated with primary antibody p-STAT-1 (Tyr701) (1:500; Cell Signaling Technology), or CD3ε (1:1000; Dako) at room temperature for 1 h. Slides were then washed with PBS containing 0.05% (w/v) Tween-20 and visualized using a rabbit IgG VECTORSTAIN ABC Elite and DAB (3,3′‐diaminobenzidine) Peroxidase Substrate Kit (Vector Laboratories, UK) and counterstained with haematoxylin. Slides were imaged on an Olympus CX43 microscope (Olympus, Tokyo, Japan).

[2] = Serum anti-nuclear antibodies (ANA) ELISA
Text: CD3ε (BD Biosciences Cat# 553058) and CD28 (BD Biosciences Cat# 557393) antibodies for T cell stimulation and NK1.1 (BD Biosciences Cat# 564143) antibody for NK cell stimulation were purchased from BD Biosciences. Ly49H (clone 3D10, BioLegend Cat# 144702) antibody for NK stimulation was from BioLegend. For analyzing T cell signaling, p-(Y418) SFK (Thermo Fisher Scientific Cat# 14-9034-82) was from Invitrogen and p-(Y694) STAT-5 (D47E7) XP® (Cell Signaling Technology Cat# 4322) was from Cell Signaling. Recombinant human IL-2, recombinant murine IL-7 and recombinant human IL-15 were purchased from the PeproTech, recombinant mouse IL-12 and recombinant human IL-18 were from Australia Biosearch and […] (N4) from Mimotopes. InVivoMAb anti-mouse PD-1 (Bio X Cell Cat# BE0146) and InVivoMAb rat IgG2a isotype control (Bio X Cell Cat# BE0251) were purchased from Bio X Cell. DNase I was from Sigma-Aldrich. Rabbit monoclonal PTP1B (Abcam Cat# ab244207) antibody for flow cytometry was from Abcam and mouse monoclonal PTPN2 6F3 antibody for immunoblotting and flow cytometry was from MédiMabs (Cat# MM-019-P). Mouse anti-actin (Thermo Fisher Scientific Cat# MA5-11866) from Invitrogen and mouse α-tubulin (Sigma-Aldrich Cat# T5168) was from Merck. The mouse anti-nuclear antibodies Ig’s (total IgA+G + M) ELISA Kit was from Alpha Diagnostic Int. and the Transaminase II Kit from Wako Pure Chemicals. FBS was purchased from Thermo Scientific, RPMI 1640, DMEM, MEM, HEPES, non-essential amino acids, penicillin/streptomycin, and sodium-pyruvate were from Invitrogen, collagenase type IV was purchased from Worthington Biochemical and ABBV-CLS-484 was from MedChemExpress (Cat# HY-145923).

[3] = tested on: STAT-1 target genes in AT3-OVA tumors; test: qPCR of STAT-1 target genes in AT3-OVA tumors; parameters: key: relative expression by comparative Ct (ΔΔCt), normalized to Rps18 or Gapdh; conditions: tumour gene expression, Lck-Cre;Ptpn2flfl+CMP-182, individual mice (Figure 7F)
Experimental: For quantitative real-time PCR analysis, RNA from tumors was isolated using RNAzol (Sigma-Aldrich, St. Louis, MO), and RNA quality was assessed using a NanoDrop 2000 (Thermo Fisher Scientific, Waltham MA). mRNA was reverse-transcribed using the High-Capacity cDNA Reverse Transcription Kit (Applied Biosystems, Thermo Fisher Scientific, Waltham, MA) and processed for quantitative Real-Time PCR using the Fast SYBR Green Master Mix (Applied Biosystems, Thermo Fisher Scientific, Waltham MA) and PrimePCR™ SYBR Green Assays (Bio-Rad, Hercules, CA) for Cxcl9 (qMmuCID0023784), Cxcl10 (qMmuCED0049500), Tapbp (qMmuCEP0035035), Tap1 (qMmuCEP0057739), […], H2ab1 (qMmuCIP0029038), Cd274 (qMmuCED0044192), H2k1 (qMmuCEP0034842), Tnf (qMmuCED0004141) and Ifng (qMmuCID0006268). Relative gene expression was determined by normalization to the house-keeping gene Rps18 (qMmuCED0045430) or Gapdh (qMmuCED0027497). Gene quantification was performed with the comparative Ct (ΔΔCt) method.

CC(C)(O)CCOc1ccc2cc(O)c(N3CC(=O)NS3(=O)=O)c(F)c2c1 [Compound 182, 5-(1-Fluoro-3-hydroxy-7-(3-hydroxy-3-methylbutoxy)naphthalen-2-yl)−1,2,5-thiadiazolidin-3-one 1,1-dioxide]
p-STAT-1 signaling and T cell infiltrates in AT3-OVA tumors of Lck-Cre;Ptpn2fl/fl mice [1]: did not further increase | p-STAT-1 staining and abundance of CD3ε+ T cells in AT3-OVA tumors ([1]; C57BL/6 mice): increased | serum anti-nuclear antibodies (ANA) ([2]; 10 mg/kg i.v.): unaltered | Serum ANA ([2]; Figure 10C, individual mice, listed as CMP-182): 77.3077 and 275 and 43.4615 and 42.6923 and 47.3077 and 142.692 and 64.2308 | ANA Serum, median ([2]; Figure 10C, median, n=8): 70.77, n=8 | H2-Ab1 [3]: 1.37 and 2.449 and 1.819 and 1.855 and 0.6743 and 0.4848 | IFNg [3]: 2.663 and 2.871 and 3.337 and 2.746 and 0.6434 and 0.3583 | cd274 [3]: 1.409 and 1.249 and 1.434 and 1.371 and 1.147 and 0.5391 | cxcl9 [3]: 1.651 and 1.828 and 1.511 and 1.806 and 0.4356 and 0.3111 | cxcl10 [3]: 1.078 and 1.3193 and 1.359 and 1.098 and 0.6504 and 0.3928
